# Measurements: PMC6696179, “Structural Optimization and Structure–Activity Relationship of 4-Thiazolidinone Derivatives as Novel Inhibitors of Human Dihydroorotate Dehydrogenase” (Molecules, 2019)
# Legend:
# hDHODH = biological target: T1, hDHODH (Homo sapiens, UniProt Q02127); assay: hDHODH enzyme inhibition assay (DCIP/UQ0, dihydroorotate-initiated); assay type: biochemical; conditions: for inhibition at 10 µM: compound at 10 µM, 10 nM purified hDHODH; for IC50: three independent tests, determined if inhibition at 10 μM was greater than 50%;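 for all read-outs here: recombinant hDHODH (Met30–Arg396) in HEPES pH 8.0 buffer with KCl and Triton X-100, reaction started by 500 µM dihydroorotate, inhibition from rate with inhibitor relative to uninhibited rate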
# T1 construct: The plasmid pET-19b–hDHODH (Met30-Arg396) was transformed; inferred from the pET-19b vector and from purification on a chelating column with imidazole elution) (N); made in house; host or cells: E. coli BL21 (DE3)
# T1 sequence (Q02127 29-395 limits assumed): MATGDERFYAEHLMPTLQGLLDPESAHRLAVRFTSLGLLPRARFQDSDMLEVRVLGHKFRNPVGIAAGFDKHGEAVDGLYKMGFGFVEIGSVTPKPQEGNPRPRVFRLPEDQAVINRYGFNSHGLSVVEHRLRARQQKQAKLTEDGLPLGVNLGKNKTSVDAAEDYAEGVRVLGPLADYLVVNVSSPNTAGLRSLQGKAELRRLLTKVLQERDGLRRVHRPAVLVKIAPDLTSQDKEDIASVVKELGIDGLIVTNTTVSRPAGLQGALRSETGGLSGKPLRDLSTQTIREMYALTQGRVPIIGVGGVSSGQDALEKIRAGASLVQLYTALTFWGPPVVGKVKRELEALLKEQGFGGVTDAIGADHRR
# Method: The purified hDHODH was diluted into a final concentration of 10 nM with the assay buffer contained 50 mM HEPES pH 8.0, 150 mM KCl, 0.1% Triton X-100. […] The dihydroorotate was added to a final concentration of 500 μM to initiate the reaction. […] Inhibition rate was calculated from (1-Vi/V0) × 100. For the determination of the IC50 values, eight to nine different concentrations were applied. Each inhibitor concentration point was tested in triplicate. IC50 values were calculated using the sigmoidal fitting option of the program Origin 8.0.
inhibition at 10 µM (hDHODH),IC50 (hDHODH),melting point,hDHODH inhibitory activity in words (hDHODH),Compound
79.1%,1.75 µM,–,–,COC(=O)/C(C#N)=C1\SCC(=O)N1c1ccc(C(C)(C)C)cc1 [Compound 7]
80.3%,1.12 µM,–,–,COC(=O)/C(C#N)=C1\SCC(=O)N1c1ccc2ccccc2c1 [Compound 8]
73.8%,1.32 µM,–,–,"COC(=O)/C(C#N)=C1\SCC(=O)N1c1ccc(-c2ccccc2)cc1 [Compound 9, Methyl (Z)-2-(3-([1,1’-biphenyl]-4-yl)-4-oxothiazolidin-2-ylidene)-2-cyanoacetate]"
58.8%,3.52 µM,–,–,"COC(=O)/C(C#N)=C1\SCC(=O)N1c1ccc(-c2ccccc2)cc1F [Compound 10, Methyl (Z)-2-cyano-2-(3-(3-fluoro-[1,1’-biphenyl]-4-yl)-4-oxothiazolidin-2-ylidene)acetate]"
33.9%,> 10 µM,–,–,"COC(=O)/C(C#N)=C1\SCC(=O)N1c1c(F)cc(-c2ccccc2)cc1F [Compound 11, Methyl (Z)-2-cyano-2-(3-(3,5-difluoro-[1,1’-biphenyl]-4-yl)-4-oxothiazolidin-2-ylidene)acetate]"
57.6%,6.04 µM,–,–,"COC(=O)/C(C#N)=C1\SCC(=O)N1c1ccc(-c2ccccc2C)cc1F [Compound 12, Methyl (Z)-2-cyano-2-(3-(3-fluoro-2’-methyl-[1,1’-biphenyl]-4-yl)-4-oxothiazolidin-2-ylidene)acetate]"
54.7%,6.64 µM,–,–,"COC(=O)/C(C#N)=C1\SCC(=O)N1c1ccc(-c2ccccc2OC)cc1F [Compound 13, Methyl (Z)-2-cyano-2-(3-(3-fluoro-2’-methoxy-[1,1’-biphenyl]-4-yl)-4-oxothiazolidin-2-ylidene)acetate]"
63.3%,5.42 µM,–,–,"COC(=O)/C(C#N)=C1\SCC(=O)N1c1ccc(-c2cccc(OC)c2)cc1F [Compound 14, Methyl (Z)-2-cyano-2-(3-(3-fluoro-3’-methoxy-[1,1’-biphenyl]-4-yl)-4-oxothiazolidin-2-ylidene)acetate]"
55.4%,6.86 µM,177.1 to 177.3 °C,–,"COC(=O)/C(C#N)=C1\SCC(=O)N1c1ccc(-c2ccc(OC)cc2)cc1F [Compound 15, Methyl (Z)-2-cyano-2-(3-(3-fluoro-4’-methoxy-[1,1’-biphenyl]-4-yl)-4-oxothiazolidin-2-ylidene)acetate]"
50.2%,8.39 µM,191.2 to 191.3 °C,–,"COC(=O)/C(C#N)=C1\SCC(=O)N1c1ccc(-c2cccc(C#N)c2)cc1F [Compound 16, Methyl (Z)-2-cyano-2-(3-(3’-cyano-3-fluoro-[1,1’-biphenyl]-4-yl)-4-oxothiazolidin-2-ylidene)acetate]"
50.7%,4.35 µM,179.2 to 179.9 °C,–,"COC(=O)/C(C#N)=C1\SCC(=O)N1c1ccc(-c2cccc([N+](=O)[O-])c2)cc1F [Compound 17, Methyl (Z)-2-cyano-2-(3-(3-fluoro-3’-nitro-[1,1’-biphenyl]-4-yl)-4-oxothiazolidin-2-ylidene) acetate]"
53.1%,9.29 µM,–,–,"COC(=O)/C(C#N)=C1\SCC(=O)N1c1ccc(-c2cccc(C(F)(F)F)c2)cc1F [Compound 18, Methyl (Z)-2-cyano-2-(3-(3-fluoro-3’-(trifluoromethyl)-[1,1’-biphenyl]-4-yl)-4-oxothiazolidin-2-ylidene) -acetate]"
52%,9.43 µM,–,–,"COC(=O)/C(C#N)=C1\SCC(=O)N1c1ccc(Oc2ccccc2)cc1 [Compound 19, Methyl (Z)-2-cyano-2-(4-oxo-3-(4-phenoxyphenyl)thiazolidin-2-ylidene)acetate]"
44.7%,> 10 µM,181.2 to 182.1 °C,–,"COC(=O)/C(C#N)=C1\SCC(=O)N1c1ccc(Oc2ccccc2OC)cc1 [Compound 20, Methyl (Z)-2-cyano-2-(3-(4-(2-methoxyphenoxy)phenyl)-4-oxothiazolidin-2-ylidene)acetate]"
29.7%,> 10 µM,159.7 to 161.3 °C,–,COC(=O)/C(C#N)=C1\SCC(=O)N1c1ccc(Oc2cccc(C(F)(F)F)c2)cc1 [Compound 21]
18.1%,> 10 µM,212.9 to 213.9 °C,–,"COC(=O)/C(C#N)=C1\SCC(=O)N1c1ccc(Oc2ccc(C(C)(C)C)cc2)cc1 [Compound 22, Methyl (Z)-2-(3-(4-(4-(tert-butyl)phenoxy)phenyl)-4-oxothiazolidin-2-ylidene)-2-cyanoacetate]"

inhibition at 10 µM (hDHODH),IC50 (hDHODH),melting point,hDHODH inhibitory activity in words (hDHODH),Compound
34.4%,> 10 µM,183.4 to 184.3 °C,inactive,"COC(=O)/C(C#N)=C1\SCC(=O)N1c1cccc(Oc2ccccc2)c1 [Compound 23, Methyl (Z)-2-cyano-2-(4-oxo-3-(3-phenoxyphenyl)thiazolidin-2-ylidene)acetate]"
55.4%,4.32 µM,–,–,"COC(=O)/C(C#N)=C1\SCC(=O)N1c1ccc(OCc2ccccc2)cc1 [Compound 24, Methyl (Z)-2-(3-(4-(benzyloxy)phenyl)-4-oxothiazolidin-2-ylidene)-2-cyanoacetate]"
29.9%,> 10 µM,–,–,"COC(=O)/C(C#N)=C1\SCC(=O)N1c1ccc(OCc2ccccc2C(=O)O)cc1 [Compound 25, (Z)-2-((4-(2-(1-Cyano-2-methoxy-2-oxoethylidene)-4-oxothiazolidin-3-yl)phenoxy)methyl)benzoic acid]"
36.2%,> 10 µM,233.2 to 234.1 °C,–,"COC(=O)/C(C#N)=C1\SCC(=O)N1c1ccc(OCc2cccc(C(=O)O)c2)cc1 [Compound 26, (Z)-3-((4-(2-(1-Cyano-2-methoxy-2-oxoethylidene)-4-oxothiazolidin-3-yl)phenoxy)methyl)benzoic acid]"
41.7%,> 10 µM,–,–,"COC(=O)/C(C#N)=C1\SCC(=O)N1c1ccc(C(=O)NC2CCCCC2)cc1 [Compound 27, Methyl (Z)-2-cyano-2-(3-(4-(cyclohexylcarbamoyl)phenyl)-4-oxothiazolidin-2-ylidene)acetate]"
69%,2.98 µM,194.9 to 195.6 °C,–,"COC(=O)/C(C#N)=C1\SCC(=O)N1c1ccc(C(=O)Nc2ccccc2)cc1 [Compound 28, Methyl (Z)-2-cyano-2-(4-oxo-3-(4-(phenylcarbamoyl)phenyl)thiazolidin-2-ylidene)acetate]"
47%,> 10 µM,274.1 to 275 °C,–,"COC(=O)/C(C#N)=C1\SCC(=O)N1c1ccc(C(=O)Nc2ccccc2C)cc1 [Compound 29, Methyl (Z)-2-cyano-2-(4-oxo-3-(4-(o-tolylcarbamoyl)phenyl)thiazolidin-2-ylidene)acetate]"
71.3%,3.01 µM,231.7 to 232.5 °C,–,"COC(=O)/C(C#N)=C1\SCC(=O)N1c1ccc(C(=O)Nc2ccc(F)cc2)cc1 [Compound 30, Methyl (Z)-2-cyano-2-(3-(4-((4-fluorophenyl)carbamoyl)phenyl)-4-oxothiazolidin-2-ylidene)acetate]"
53.6%,8.56 µM,264.2 to 265.1 °C,–,"COC(=O)/C(C#N)=C1\SCC(=O)N1c1ccc(C(=O)Nc2ccc(F)c(C#N)c2)cc1 [Compound 31, Methyl (Z)-2-cyano-2-(3-(4-((3-cyano-4-fluorophenyl)carbamoyl)phenyl)-4-oxothiazolidin-2-ylidene)acetate]"
52.7%,7.5 µM,280.1 to 280.9 °C,–,"COC(=O)/C(C#N)=C1\SCC(=O)N1c1ccc(C(=O)Nc2ccc(Cl)cc2)cc1 [Compound 32, Methyl (Z)-2-(3-(4-((4-chlorophenyl)carbamoyl)phenyl)-4-oxothiazolidin-2-ylidene)-2-cyanoacetate]"
42%,> 10 µM,306.2 to 307.1 °C,–,"COC(=O)/C(C#N)=C1\SCC(=O)N1c1ccc(C(=O)Nc2ccc(Br)cc2)cc1 [Compound 33, Methyl (Z)-2-(3-(4-((4-bromophenyl)carbamoyl)phenyl)-4-oxothiazolidin-2-ylidene)-2-cyanoacetate]"
38.1%,> 10 µM,315.8 to 316.6 °C,–,"COC(=O)/C(C#N)=C1\SCC(=O)N1c1ccc(C(=O)Nc2ccc(I)cc2)cc1 [Compound 34, Methyl (Z)-2-cyano-2-(3-(4-((4-iodophenyl)carbamoyl)phenyl)-4-oxothiazolidin-2-ylidene)acetate]"
24.5%,> 10 µM,264.2 to 265.1 °C,–,"COC(=O)/C(C#N)=C1\SCC(=O)N1c1ccc(C(=O)Nc2ccc(C(F)(F)F)cc2)cc1 [Compound 35, Methyl (Z)-2-cyano-2-(4-oxo-3-(4-((4-(trifluoromethyl)phenyl)carbamoyl)phenyl)thiazolidin-2-ylidene) acetate]"
55.4%,5.01 µM,268.9 to 269.7 °C,–,"COC(=O)/C(C#N)=C1\SCC(=O)N1c1ccc(C(=O)Nc2ccc(OC)cc2)cc1 [Compound 36, Methyl (Z)-2-cyano-2-(3-(4-((4-methoxyphenyl)carbamoyl)phenyl)-4-oxothiazolidin-2-ylidene)acetate]"
75.6%,1.45 µM,256.1 to 257 °C,–,"COC(=O)/C(C#N)=C1\SCC(=O)N1c1ccc(C(=O)Nc2ccc(C(C)(C)C)cc2)cc1 [Compound 37, Methyl (Z)-2-(3-(4-((4-(tert-butyl)phenyl)carbamoyl)phenyl)-4-oxothiazolidin-2-ylidene)-2-cyanoacetate]"
